Assay results published in ChEMBL document CHEMBL1156607, “A new multi-gram synthetic route to labeling precursors for the D(2/3) PET agent 18F-fallypride” (Bioorg Med Chem Lett, 2008).

Biological target: D(2) dopamine receptor (Homo sapiens, UniProt P14416)
Assay: Antagonist activity at dopamine D2 receptor
Type: functional

D(2) dopamine receptor, sequence (P14416 whole entry): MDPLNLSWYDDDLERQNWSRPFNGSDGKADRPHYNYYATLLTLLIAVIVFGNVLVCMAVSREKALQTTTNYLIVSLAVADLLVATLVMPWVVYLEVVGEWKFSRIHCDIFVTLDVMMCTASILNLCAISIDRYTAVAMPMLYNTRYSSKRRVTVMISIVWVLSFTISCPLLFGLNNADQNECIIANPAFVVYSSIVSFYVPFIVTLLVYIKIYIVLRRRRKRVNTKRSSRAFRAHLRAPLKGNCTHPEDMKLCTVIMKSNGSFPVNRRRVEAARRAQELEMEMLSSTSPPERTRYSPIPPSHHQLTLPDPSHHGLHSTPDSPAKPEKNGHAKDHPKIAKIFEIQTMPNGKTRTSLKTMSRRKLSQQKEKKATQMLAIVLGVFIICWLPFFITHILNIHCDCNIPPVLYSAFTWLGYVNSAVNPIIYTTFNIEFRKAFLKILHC

With `C=CCN1CCC[C@H]1CNC(=O)c1cc(CCCCl)cc(OC)c1OC` the IC50 was 0.0171 µM.
Molecule `C=CCN1CCC[C@H]1CNC(=O)c1cc(CCCF)cc(OC)c1OC` [FALLYPRIDE] has an IC50 of 0.005 µM.
